Data published in ChEMBL document CHEMBL1151412, “Constituents of Couepia paraensis” (1983).
In brackets after ≈: the same amount, converted by molar mass.

System: KB
Assay: Cytotoxicity against human KB cells
Type: functional
Conditions: read-out: ED50 (the source's name)

COc1c(OC)c(O)c2c(=O)cc(C)oc2c1C
EC50: 60 µg/mL (≈ 240 µM)
